Measured values from patent US20090246153A1, “COSMETIC COMPOSITIONS FOR THE INHIBITION OF REACTIVE OXYGEN SPECIES” (Nu Skin International, Inc., priority 2008, published 2009).

Assays:
arNOX [1] = assay: arNOX inhibition: superoxide formation measured by reduction of ferric cytochrome c, serum or buffy coats; format: biochemical
Method: Superoxide Production By Buffy Coats: Buffy coats, a mixture of lymphocytes and platelets. Such buffy coats are commercially available from, for example Rockland ImmunoChemicals (Gilbertsville, Pa.). The blood samples were maintained at 4° C. prior to collection and assay. Ca. 10^7 cells were added to each assay. Cell numbers were determined using a hemocytometer.
Reduction of ferric cytochrome c by superoxide was employed as a standard measure of superoxide formation (Mayo, L. A. and Cumutte, J. (1990) Meth. Enzyme. 186, 567-575. 7. Butler, J, Koppenol, W. H. and Margollash, E. (1982) J. Biol. Chem. 257, 10747). This is a widely accepted method when coupled to superoxide dismutase inhibition for the measurement of superoxide generation. The assay consists of 150 μl serum or 40 μl buffy coats in PBSG buffer (8.06 g NaCl, 0.2 g KCl, 0.18 g Na2HPO4, 0.26 g KH2PO4, 0.13 g CaCl2, 0.1 g MgCl2 1.35 g glucose dissolved in 1000 ml deionized water, adjusted to pH 7.4, filtered and stored at 4° C.) Rates were determined using an SLM Aminco DW-2000 spectrophotometer (Milton Roy, Rochester, N.Y., USA) in the dual wave length mode of operation with continuous measurements over 1 min every 1.5 min. After 45 min, test compounds were added and the reaction was continued for 45 min. After 45 min. A millimolar extinction coefficient of 19.1 cm^−1 was used for reduced ferricytochrome c. The results of the test compounds are provided in Table I. Extracts were made of the compounds in water unless otherwise indicated.

arNOX [2] = settings: cited from earlier work

## CC1=C(/C=C/C(C)=C/C=C/C(C)=C/C=C/C=C(C)/C=C/C=C(C)/C=C/C2=C(C)C(=O)[C@@H](O)CC2(C)C)C(C)(C)C[C@H](O)C1=O [Natural astaxanthin, astaxanthin]
arNOX [1]; Ethanol, 25 μg/ml
  ArNOX ACTIVITY % OF NO ADDITION: 62%
  INHIBITION (−) or STIMULATION (+): −38%

## COC1=C(OC)C(=O)C(C/C=C(\C)CC/C=C(\C)CC/C=C(\C)CC/C=C(\C)CC/C=C(\C)CC/C=C(\C)CC/C=C(\C)CC/C=C(\C)CC/C=C(\C)CCC=C(C)C)=C(C)C1=O [co-enzyme Q, ubiquinone]
arNOX [2]
  arNOX activity of aging cells: inhibited

## CC1=C(/C=C/C(C)=C/C=C/C(C)=C/C=C/C=C(C)/C=C/C=C(C)/C=C/C2=C(C)CCCC2(C)C)C(C)(C)CCC1 [β-Carotene]
arNOX [1]; Ethanol, 0.25 μg/ml
  ArNOX ACTIVITY % OF NO ADDITION: 73%
  INHIBITION (−) or STIMULATION (+): −42%
arNOX [1]; Ethanol, 2.5 μg/ml
  ArNOX ACTIVITY % OF NO ADDITION: 50%
  INHIBITION (−) or STIMULATION (+): −50%
arNOX [1]; Ethanol, 25 μg/ml
  ArNOX ACTIVITY % OF NO ADDITION: 68%
  INHIBITION (−) or STIMULATION (+): −32%
arNOX [1]; Water, 25 μg/ml
  ArNOX ACTIVITY % OF NO ADDITION: 28%
  INHIBITION (−) or STIMULATION (+): −72%
